From patent publication US20080063628A1, “METHODS TO PROMOTE CELL DIFFERENTIATION” (priority 2006, published 2008)

System: early passage (P5) pancreatic-derived stromal cell line
Assay: Single trichostatin A dose, 144 h follow-up, gene expression by RT-PCR (Example 6)
Format: cell-based, human
Details: 1.25 μM once at 0 h
Method: Several cell lines obtained from different amniotic fluid specimens (see Example 14) and pancreas donors (see Example 13) were tested with similar results. Two lines at similar passage number but derived from different amniotic fluid specimens are shown in Table VI-A and Table VI-B for this example. One of these cell lines was also used in examples 2 and 4 above. In addition, this example also contains comparison data in Table VI-C and Table VI-D for a single pancreatic-derived stromal line grown to early and late passage number.
Amniotic fluid derived cells or pancreatic-derived stromal cells were seeded into 24-well tissue culture plates at a density of 5000/cm^2 and cultured in AMNIOMAX (Invitrogen) or DMEM with 10% FBS, respectively, under standard cell culture conditions until confluent. After the cells reached confluency, amniotic fluid derived cells were treated once at time 0 hours with 500 nM trichostatin A. Pancreas-derived stromal cells were treated once at time 0 hours with 1.25 μM trichostatin A. Samples for RT-PCR were taken daily from zero to six days at the times indicated in Table VI.
RNA samples were obtained from the treated cultures up to 144 hours after the initial addition of trichostatin A or DMSO. Culture media was removed, the cells were washed with PBS, and RLT lysis buffer containing β-mercaptoethanol (Qiagen) was added. During culture, the medium was not changed nor was freshly prepared trichostatin A added. RNA was purified using the RNeasy Mini Kit (Qiagen), and RNA quantity and quality was determined using a spectrophotometer. cDNA was made using the iScript cDNA synthesis kit (BioRad).
Samples of 20 ng cDNA were used in each reaction to determine the expression levels of the following genes in amniotic fluid-derived cells: Gata1, HNF-3 beta, Pdx-1, insulin, and Sox17. Similarly, samples of 20 ng cDNA were used in each reaction to determine the expression level of the following genes in pancreatic-derived stromal cells: glucagon, HNF-3 beta, insulin and Pdx-1. Real-Time PCR was performed on the Applied Biosystems 7500, and data was analyzed using the accompanying software according to the methods described in Example 15.
Real-time PCR amplifcation and quantitative analysis. Unless otherwise stated, all reagents were purchased from Applied Biosystems. Real-time PCR reactions were performed using the ABI PRISM™ 7500 Sequence Detection System. TAQMAN™ FAST UNIVERSAL PCR MASTER MIX™ (ABI, CA) was used with 20 ng of reverse transcribed RNA in a total reaction volume of 20 μl. Each cDNA sample was run in duplicate to allow correction of pipetting errors. Primers and FAM-labeled TAQMAN™ probes were used at concentrations of 200 nM. The level of expression for each target gene was normalized using the pre-developed Applied Biosystem's human glyceraldehyde-3-phosphate dehydrogenase (GAPDH) endogenous control kit. Primers and probes were designed using either ABI PRISM PRIMER EXPRESS™ software or a pre-developed ABI gene analysis kit. For each gene, either one of the primers or the probe were designed to be exon-boundary spanning. This eliminated the possibility of the primers/probe binding to any genomic DNA present. The primer and probe sets are listed as follows: Pdx-1 (Hs00426216), Insulin (Hs00355773), glucagon (Hs00174967), and FoxA2 (HNF 3-beta) (Hs00232764). The remaining primers were designed using the PRIMERS program (ABI, CA). After an initial 95° C. incubation for 20 sec, samples were cycled 40 times in two stages: a denaturation step at 95° C. for 3 sec, followed by an annealing/extension step at 60° C. for 30 sec.
For each primer/probe set, a cycle time value was determined as the cycle number at which the fluorescence intensity of the PCR reaction reached a specific value in the middle of the exponential region of amplification. An increase in expression of a gene corresponded to a decrease in the number of cycles required for the fluorescence intensity to reach this value.

SMILES: CC(/C=C/C(=O)NO)=C\[C@@H](C)C(=O)c1ccc(N(C)C)cc1 [trichostatin A]
- HNF (HNF-3 beta) gene expression (24 hrs): +++ (detectable at less than 35 cycles by RT-PCR with SE less than 0.9)
- Insulin gene expression (24 hrs): nd (not detectable at >40 cycles by RT-PCR)
- Pdx-1 gene expression (24 hrs): +++ (detectable at less than 35 cycles by RT-PCR with SE less than 0.9)
- glucagon gene expression (24 hrs): +++ (detectable at less than 35 cycles by RT-PCR with SE less than 0.9)
- HNF (HNF-3 beta) gene expression (48 hrs): nd (not detectable at >40 cycles by RT-PCR)
- Insulin gene expression (48 hrs): nd (not detectable at >40 cycles by RT-PCR)
- Pdx-1 gene expression (48 hrs): nd (not detectable at >40 cycles by RT-PCR)
- glucagon gene expression (48 hrs): + (detectable between 35 and 40 cycles by RT-PCR)
- HNF (HNF-3 beta) gene expression (72 hrs): nd (not detectable at >40 cycles by RT-PCR)
- Insulin gene expression (72 hrs): nd (not detectable at >40 cycles by RT-PCR)
- Pdx-1 gene expression (72 hrs): nd (not detectable at >40 cycles by RT-PCR)
- glucagon gene expression (72 hrs): + (detectable between 35 and 40 cycles by RT-PCR)
- HNF (HNF-3 beta) gene expression (96 hrs): nd (not detectable at >40 cycles by RT-PCR)
- Insulin gene expression (96 hrs): nd (not detectable at >40 cycles by RT-PCR)
- Pdx-1 gene expression (96 hrs): nd (not detectable at >40 cycles by RT-PCR)
- glucagon gene expression (96 hrs): +++ (detectable at less than 35 cycles by RT-PCR with SE less than 0.9)
- HNF (HNF-3 beta) gene expression (120 hrs): nd (not detectable at >40 cycles by RT-PCR)
- Insulin gene expression (120 hrs): nd (not detectable at >40 cycles by RT-PCR)
- Pdx-1 gene expression (120 hrs): nd (not detectable at >40 cycles by RT-PCR)
- glucagon gene expression (120 hrs): nd (not detectable at >40 cycles by RT-PCR)
- HNF (HNF-3 beta) gene expression (144 hrs): nd (not detectable at >40 cycles by RT-PCR)
- Insulin gene expression (144 hrs): nd (not detectable at >40 cycles by RT-PCR)
- Pdx-1 gene expression (144 hrs): nd (not detectable at >40 cycles by RT-PCR)
- glucagon gene expression (144 hrs): nd (not detectable at >40 cycles by RT-PCR)
